The text below walks through data of patent publication US9487504B2, “Imidazolyl analogs as syk inhibitors” (Merck Sharp & Dohme Corp., priority 2012, dated 2016).

SMILES strings stand for the structures.

The target in the test is T1, recombinant human GST-Syk (Homo sapiens, UniProt P43405).
T1 construct: purchased Carna Biosciences 08-176
Kind of test: Homogeneous Time-Resolved Fluorescence (HTRF) assay for the recombinant human Syk enzyme. To be noted: ATP 25 μM, 10-dose titration, read-out: rhSYK Activity. It is filed as biochemical. The procedure, abridged:
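Recombinant GST-hSyk ([…]) was preincubated 10 min at room temperature with inhibitor (0.1% DMSO) in Tris pH 7.5, then reacted for 45 min with 250 nM biotinylated peptide, 5 mM Mg and 25 μM ATP. Phosphorylation was detected by HTRF (Eu-anti-phosphotyrosine/SA-APC). IC50 was derived from a 10-dose titration (10 μM–0.508 nM) with a 4-parameter fit.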
A general note: Time-resolved FRET reads energy transfer from a long-lived donor to a nearby acceptor.
For `Cc1cc(Nc2nccc(C(F)(F)F)n2)cc(-n2cnc(CCC(=O)O)c2)c1` [Example 76, 3-[1-(3-methyl-5-{[4-(trifluoromethyl)pyrimidin-2-yl]amino}-phenyl)-1H-imidazol-4-yl]propanoic acid], the IC50 was ≤ 100 nM.

With `Cc1cc(Nc2nccc(C(F)(F)F)n2)cc(-n2cnc(CC#N)c2)c1` [Example 77, [1-(3-methyl-5-{[4-(trifluoromethyl)pyrimidin-2-yl]amino}-phenyl)-1H-imidazol-4-yl]acetonitrile], the IC50 was ≤ 100 nM.

Take `Cc1cc(Nc2nccc(C(F)(F)F)n2)cc(-n2cnc(C(=O)O)c2)c1` [Example 78, 1-(3-methyl-5-{[4-(trifluoromethyl)-pyrimidin-2-yl]amino}-phenyl)-1H-imidazole-4-carboxylic acid]: the IC50 was ≤ 100 nM.

Consider `Nc1cc(Nc2cc(Cl)ccn2)nc(-n2cnc(C(O)(C3CC3)C3CC3)c2)c1` [Example 79, (1-{4-amino-6-[(4-chloropyridin-2-yl)amino}pyridin-2-yl}-1H-imidazol-4-yl)(dicyclopropyl)methanol], for which the IC50 is ≤ 100 nM.

Take `Cc1cc(Nc2cc(Cl)ccn2)nc(-n2cnc(C(O)(C3CC3)C3CC3)c2)c1` [Example 80, (1-{6-[(4-chloropyridin-2-yl)amino]-4-methylpyridin-2-yl}-1H-imidazol-4-yl)(dicyclopropyl)-methanol]: the IC50 is ≤ 100 nM.

As to `OC(c1cn(-c2cccc(Nc3cc(Cl)ccn3)n2)cn1)(C1CC1)C1CC1` [Example 81, (1-{6-[(4-chloropyridin-2-yl)amino]pyridin-2-yl}-1H-imidazol-4-yl)(dicyclopropyl)-methanol], the IC50 is ≤ 100 nM.

Regarding `OC(c1cn(-c2cccc(Nc3nccc(C(F)(F)F)n3)c2)cn1)(C1CC1)C1CC1` [Example 82, dicyclopropyl[1-(3-{[4-(trifluoromethyl)-pyrimidin-2-yl]amino}phenyl)-1H-imidazol-4-yl]methanol], the IC50 is ≤ 100 nM.

`OC(c1cn(-c2cccc(Nc3cc(C(F)(F)F)ccn3)n2)cn1)(C1CC1)C1CC1` [Example 83, dicyclopropyl[1-(6-{[4-(trifluoromethyl)-pyridin-2-yl]amino}pyridin-2-yl)-1H-imidazol-4-yl]methanol]: the IC50 was ≤ 100 nM.

Take `Nc1cc(Nc2cc(C(F)(F)F)ccn2)nc(-n2cnc(C(O)(C3CC3)C3CC3)c2)c1` [Example 84]: the IC50 is ≤ 100 nM.

Consider `COC(=O)c1cn(-c2cc(N)cc(Nc3cc(C(F)(F)F)ccn3)n2)cn1` [Example 85, Methyl 1-(4-amino-6-{[4-(trifluoromethyl)-pyridin-2-yl]amino}-pyridin-2-yl)-1H-imidazole-4-carboxylate], for which the IC50 is ≤ 100 nM.

Regarding `Cc1ccnc(Nc2cc(C)cc(-n3cnc(C(O)(C4CC4)C4CC4)c3)n2)c1` [Example 86, dicyclopropyl(1-{4-methyl-6-[(4-methylpyridin-2-yl)amino]pyridin-2-yl}-1H-imidazol-4-yl)methanol], the IC50 was ≤ 100 nM.

For the compound `Cc1ccnc(Nc2cc(C)cc(-n3cnc(C(C)(C)O)c3)n2)c1` [Example 87, 2-(1-{4-methyl-6-[(4-methylpyridin-2-yl)amino]pyridin-2-yl}-1H-imidazol-4-yl)propan-2-ol], the IC50 was ≤ 100 nM.

On to `Cc1cc(Nc2nccc(C(F)(F)F)n2)cc(-n2cnc(C(=O)N3CCCC3)c2)c1` [Example 88, N-{3-methyl-5-[4-(pyrrolidin-1-ylcarbonyl)-1H-imidazol-1-yl]phenyl}-4-(trifluoromethyl)pyrimidin-2-amine], for which the IC50 was ≤ 100 nM.

Regarding `Cc1cc(Nc2nccc(C(F)(F)F)n2)cc(-n2cnc(C(=O)NC(C)C)c2)c1` [Example 89, N-(1-methylethyl)-1-(3-methyl-5-{[4-(trifluoromethyl)pyrimidin-2-yl]amino}-phenyl)-1H-imidazole-4-carboxamide], the IC50 lay within 100 to 1000 nM.

On to `CC(C)(O)c1cn(-c2cc(Cl)cc(Nc3cc(C(F)(F)F)ccn3)n2)cn1` [Example 90, 2-[1-(4-chloro-6-{[4-(trifluoromethyl)pyridin-2-yl]amino}pyridin-2-yl)-1H-imidazol-4-yl]propan-2-ol], for which the IC50 was ≤ 100 nM.

Consider `CC(C)(O)c1cn(-c2cc(C(F)(F)F)cc(Nc3cc(C(F)(F)F)ccn3)n2)cn1` [Example 91, 2-{1-[4-(trifluoro-methyl)-6-{[4-(trifluoromethyl)-pyridin-2-yl]amino}-pyridin-2-yl]-1H-imidazol-4-yl}propan-2-ol], for which the IC50 was 100 to 1000 nM.

`Cc1cc(Nc2cc(C(F)(F)F)ccn2)nc(-n2cnc(C(C)(C)O)c2)c1` [Example 92, 2-[1-(4-methyl-6-{[4-(trifluoromethyl)pyridin-2-yl]amino}pyridin-2-yl)-1H-imidazol-4-yl]propan-2-ol]: the IC50 was ≤ 100 nM.

For `COC(=O)c1cn(-c2cc(C)cc(Nc3cc(C(F)(F)F)ccn3)n2)cn1` [Example 93, Methyl 1-(4-methyl-6-{[4-(trifluoromethyl)-pyridin-2-yl]amino}-pyridin-2-yl)-1H-imidazole-4-carboxylate], the IC50 was ≤ 100 nM.

Turning to `CC(C)(O)c1cn(-c2cccc(Nc3cc(C(F)(F)F)ccn3)n2)cn1` [Example 94, 2-[1-(6-{[4-(trifluoromethyl)-pyridin-2-yl]amino}-pyridin-2-yl)-1H-imidazol-4-yl]propan-2-ol], the IC50 is ≤ 100 nM.

For `Cc1cc(Nc2cc(Cl)ccn2)nc(-n2cnc(C(C)(C)O)c2)c1` [Example 95, 2-(1-{6-[(4-chloropyridin-2-yl)amino]-4-methylpyridin-2-yl}-1H-imidazol-4-yl)propan-2-ol], the IC50 is ≤ 100 nM.

As for `COC(=O)c1cn(-c2cccc(Nc3cc(C(F)(F)F)ccn3)n2)cn1` [Example 96, Methyl 1-(6-{[4-(trifluoromethyl)pyridin-2-yl]amino}pyridin-2-yl)-1H-imidazole-4-carboxylate], the IC50 was ≤ 100 nM.

With `COC(=O)c1cn(-c2cc(C)cc(Nc3cc(Cl)ccn3)n2)cn1` [Example 97, Methyl 1-{6-[(4-chloropyridin-2-yl)amino]-4-methylpyridin-2-yl}-1H-imidazole-4-carboxylate], the IC50 is ≤ 100 nM.

As for `COC(=O)c1cn(-c2cc(C)cc(Nc3nccc(C(F)(F)F)n3)c2)cn1` [Example 98, Methyl 1-(3-methyl-5-{[4-(trifluoromethyl)-pyrimidin-2-yl]amino}phenyl)-1H-imidazole-4-carboxylate], the IC50 is ≤ 100 nM.

As for `Cc1cc(Nc2nccc(C(F)(F)F)n2)cc(-n2cnc(C(C)(C)O)c2)c1` [Example 99, 2-[1-(3-methyl-5-{[4-(trifluoromethyl)pyrimidin-2-yl]amino}phenyl)-1H-imidazol-4-yl]propan-2-ol], the IC50 was ≤ 100 nM.

For `Cc1ccnc(Nc2cccc(-n3cnc(C(C)(C)O)c3)n2)c1` [Example 100, 2-(1-{6-[(4-methylpyridin-2-yl)amino]pyridin-2-yl}-1H-imidazol-4-yl)propan-2-ol], the IC50 lay in the range of 100 to 1000 nM.

Regarding `CC(C)(O)c1cn(-c2cccc(Nc3cc(Cl)ccn3)n2)cn1` [Example 101, 2-(1-{6-[(4-chloropyridin-2-yl)amino]pyridin-2-yl}-1H-imidazol-4-yl)propan-2-ol], the IC50 was ≤ 100 nM.

For `COC(=O)c1cn(-c2cccc(Nc3cc(C)ccn3)n2)cn1` [Example 102, Methyl 1-{6-[(4-methylpyridin-2-yl)amino]pyridin-2-yl}-1H-imidazole-4-carboxylate], the IC50 lay within 100 to 1000 nM.
